Drawing on patent publication US20250346600A1, “TRICYCLIC DERIVATIVES AND RELATED USES” (MOMA Therapeutics, Inc., priority 2023, published 2025), this text covers AC50 for 17 compounds.

One test concerns HCT116 cells. Put plainly: HCT116 (MSI) 7 day viability, CellTiter Glo. Type of test: cell-based. The following applies: 7 days, read-out: HCT116 (MSI) Viability 7 Day Abs AC50. The method in brief:
(§1)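 Luminescence read-out (CellTiter Glo) after 7-day compound exposure at 37 °C. Seeding density 50 cells/well for HCT116, 500 cells/well for HT29. Background from cell-free medium wells; IC50 by four-parameter logistic fit, geometric mean of at least 2 replicates.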
(Cellular ATP, detected with luciferase, serves as a proxy for viable cell number.)

In test [1] the target is T1, Full length WRN protein (aa 2-1432) (Homo sapiens (Human), UniProt Q14191). Put plainly: WRN ATPase ADP-Glo biochemical assay, Assay Format A (10 μM ATP). Particulars: 0.25 nM WRN, 100 nM C6.18 ssDNA, 30 min preincubation, read-out: ATPase ADPGlo AC50 (uM)- Assay Format A. The method in brief:
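Sf9-expressed FLAG-AVI-TEV-tagged WRN (0.5 nM) preincubated 30 min with compound (11-point 3-fold dilution). Reaction started with 200 nM C6.18 39-mer ssDNA and 20 μM ATP (addition concentrations), run 30 min at room temperature. ADP measured by ADP-Glo luminescence; IC50 from four-parameter fit, geometric mean of ≥2 runs.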

The target of test [2] is T1, Full length WRN protein (aa 2-1432). The experiment in a line: WRN ATPase ADP-Glo biochemical assay, Assay Format B (100 μM ATP). Particulars: 0.25 nM WRN, 100 nM C6.18 ssDNA, 60 min preincubation, read-out: ATPase ADPGlo AC50 (uM)- Assay Format B. In general terms: In ADP-Glo the light output rises with the ADP produced.
In the next test the test system is HT29 cells. The experiment in a line: HT29 (MSS) 7 day viability, CellTiter Glo. Type of test: cell-based. The following applies: Homo sapiens, HT-29, 168 h, 7 days, read-out: HT29 (MSS) Viability 7 Day CTGAbs AC50. In outline: as §1

Where two headings read alike, the source gives them in different places. Bounds are passed on as bounds.

T1 sequence (Q14191 2-1432): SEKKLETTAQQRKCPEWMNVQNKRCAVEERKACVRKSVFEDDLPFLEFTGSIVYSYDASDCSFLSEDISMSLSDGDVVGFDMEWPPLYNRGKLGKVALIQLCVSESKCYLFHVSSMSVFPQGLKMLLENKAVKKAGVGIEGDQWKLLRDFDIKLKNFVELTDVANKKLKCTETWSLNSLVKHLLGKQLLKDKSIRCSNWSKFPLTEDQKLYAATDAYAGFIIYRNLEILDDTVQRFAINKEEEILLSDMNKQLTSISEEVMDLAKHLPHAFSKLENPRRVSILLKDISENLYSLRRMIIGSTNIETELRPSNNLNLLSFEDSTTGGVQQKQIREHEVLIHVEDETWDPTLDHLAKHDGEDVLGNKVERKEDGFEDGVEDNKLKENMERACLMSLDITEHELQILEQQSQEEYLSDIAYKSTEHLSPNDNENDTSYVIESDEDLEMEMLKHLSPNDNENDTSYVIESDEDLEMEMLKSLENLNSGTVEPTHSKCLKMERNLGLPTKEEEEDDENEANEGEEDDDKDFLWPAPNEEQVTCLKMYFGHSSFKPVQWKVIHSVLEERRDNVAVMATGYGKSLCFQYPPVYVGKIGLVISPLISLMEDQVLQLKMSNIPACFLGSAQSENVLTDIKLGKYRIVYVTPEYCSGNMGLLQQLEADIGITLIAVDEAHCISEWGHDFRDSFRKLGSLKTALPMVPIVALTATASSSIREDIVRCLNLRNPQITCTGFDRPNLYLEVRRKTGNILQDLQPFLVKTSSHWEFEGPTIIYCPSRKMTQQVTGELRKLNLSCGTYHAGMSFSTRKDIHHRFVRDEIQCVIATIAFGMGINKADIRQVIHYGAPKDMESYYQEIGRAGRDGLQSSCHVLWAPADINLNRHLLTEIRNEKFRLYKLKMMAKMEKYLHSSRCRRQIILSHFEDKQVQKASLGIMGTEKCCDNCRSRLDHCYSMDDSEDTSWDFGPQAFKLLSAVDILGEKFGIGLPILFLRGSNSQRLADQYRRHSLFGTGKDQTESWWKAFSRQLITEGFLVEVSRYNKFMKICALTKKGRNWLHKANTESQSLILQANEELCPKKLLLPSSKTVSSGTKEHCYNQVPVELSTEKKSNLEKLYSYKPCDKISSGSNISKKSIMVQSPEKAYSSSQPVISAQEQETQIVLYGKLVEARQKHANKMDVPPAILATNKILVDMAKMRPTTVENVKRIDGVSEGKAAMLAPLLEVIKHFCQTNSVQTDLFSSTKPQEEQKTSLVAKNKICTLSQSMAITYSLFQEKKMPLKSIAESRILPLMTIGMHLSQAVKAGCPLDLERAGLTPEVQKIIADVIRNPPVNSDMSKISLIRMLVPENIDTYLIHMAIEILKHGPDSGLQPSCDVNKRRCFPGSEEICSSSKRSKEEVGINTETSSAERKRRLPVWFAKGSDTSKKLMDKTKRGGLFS

Usually AC50 stands for the concentration at which the activity in the assay is half-maximal. Consider `C=CC(=O)N1CCc2nn(-c3ccc(C4CC4)cc3)c3c2C(C1)N(C(=O)c1c(N)cc(C(F)(F)F)nc1N)CC3` (centres unmarked) [Compound 186, 1-(2-(4-cyclopropylphenyl)-5-(2,4-diamino-6-(trifluoromethyl)nicotinoyl)-2,3,4,5,5a,6,8,9-octahydro-7H-1,2,5,7-tetraazabenzo[cd]azulen-7-yl)prop-2-en-1-one], for which the AC50 is 1 to 100 nM in the test on HCT116 cells (Homo sapiens, HCT-116, 168 h); under 0.0015 µM in test [1]; 0.005 to 0.015 µM in test [2]; over 3000 nM with HT29 cells.

For the compound `C=CC(=O)N1CCc2nn(-c3ccc(C4CCC4)cc3O)c3c2C(C1)N(C(=O)c1ncc(C(F)(F)F)c(N)n1)CC3` (centres unmarked) [Compound 159, 1-(5-(4-amino-5-(trifluoromethyl)pyrimidine-2-carbonyl)-2-(4-cyclobutyl-2-hydroxyphenyl)-2,3,4,5,5a,6,8,9-octahydro-7H-1,2,5,7-tetraazabenzo[cd]azulen-7-yl)prop-2-en-1-one], the AC50 in the test with HCT116 cells (Homo sapiens, HCT-116, 168 h) is 1 to 100 nM; in test [1] it was 0.0015 to 0.005 µM; in test [2], 0.015 to 0.055 µM; with HT29 cells, over 3000 nM.

With `C=CC(=O)N1CC(OC)c2nn(-c3ccc(C4CCC4)cc3O)c3c2C(C1)N(C(=O)c1cnc(C(F)(F)F)c(O)c1)CC3` (centres unmarked) [Compound 72, 1-(2-(4-cyclobutyl-2-hydroxyphenyl)-5-(5-hydroxy-6-(trifluoromethyl)nicotinoyl)-9-methoxy-2,3,4,5,5a,6,8,9-octahydro-7H-1,2,5,7-tetraazabenzo[cd]azulen-7-yl)prop-2-en-1-one], the AC50 in the test with HCT116 cells (Homo sapiens, HCT-116, 168 h) is 1 to 100 nM; in test [1] it was under 0.0015 µM; in test [2], 0.0015 to 0.005 µM; in the test with HT29 cells it was over 3000 nM.

For the compound `C=CC(=O)N1CCc2nn(-c3ccc(C(C)C)cc3)c3c2C(C1)N(C(=O)c1ccc(C(F)(F)F)nc1)CC3` (centres unmarked) [Compound 13, 1-(2-(4-isopropylphenyl)-5-(6-(trifluoromethyl)nicotinoyl)-2,3,4,5,5a,6,8,9-octahydro-7H-1,2,5,7-tetraazabenzo[cd]azulen-7-yl)prop-2-en-1-one], the AC50 with HCT116 cells (Homo sapiens, HCT-116, 168 h) was 100 to 250 nM; in test [1], 0.0015 to 0.005 µM; in test [2], 0.015 to 0.055 µM; in the test on HT29 cells, over 3000 nM.

Turning to `C=CC(=O)N1CCc2nn(-c3ccc(C4CC4)cc3)c3c2C(C1)N(C(=O)c1ccc(Cl)nc1N)CC3` (centres unmarked) [Compound 167, 1-(5-(2-amino-6-chloronicotinoyl)-2-(4-cyclopropylphenyl)-2,3,4,5,5a,6,8,9-octahydro-7H-1,2,5,7-tetraazabenzo[cd]azulen-7-yl)prop-2-en-1-one], the AC50 is 1 to 100 nM in the test with HCT116 cells (Homo sapiens, HCT-116, 168 h); under 0.0015 µM in test [1]; 0.015 to 0.055 µM in test [2]; over 3000 nM in the test on HT29 cells.

In the case of `C=CC(=O)N1CCc2nn(-c3ccc(C4CCC4)cc3O)c3c2C(C1)N(C(=O)c1ccc(C(F)(F)F)c2ncncc12)CC3` (centres unmarked) [Compound 242, 1-(2-(4-cyclobutyl-2-hydroxyphenyl)-5-(8-(trifluoromethyl)quinazoline-5-carbonyl)-2,3,4,5,5a,6,8,9-octahydro-7H-1,2,5,7-tetraazabenzo[cd]azulen-7-yl)prop-2-en-1-one], the AC50 is 1 to 100 nM with HCT116 cells (Homo sapiens, HCT-116, 168 h); 0.0015 to 0.005 µM in test [1]; 0.015 to 0.055 µM in test [2]; over 3000 nM in the test with HT29 cells.

For `C=CC(=O)N1CC(F)Oc2nn(-c3ccc(C(C)C)cc3)c3c2C(C1)N(C(=O)c1ccc(Br)c2[nH]cnc12)CC3` (centres unmarked) [Compound 54, 1-(5-(7-bromo-1H-benzo[d]imidazole-4-carbonyl)-9-fluoro-2-(4-isopropylphenyl)-2,3,4,5,5a,6,8,9-octahydro-7H-10-oxa-1,2,5,7-tetraazacycloocta[cd]inden-7-yl)prop-2-en-1-one], the AC50 with HCT116 cells was over 1000 nM; in test [1], under 0.0015 µM; in test [2], 0.005 to 0.015 µM; in the test on HT29 cells it was over 3000 nM.

For the compound `C=CC(=O)N1CCc2nn(-c3ccc(C4CCC4)cc3O)c3c2C(C1)N(C(=O)c1ccc(C(F)(F)F)c2[nH]ncc12)CC3` (centres unmarked) [Compound 97, 1-(2-(4-cyclobutyl-2-hydroxyphenyl)-5-(7-(trifluoromethyl)-1H-indazole-4-carbonyl)-2,3,4,5,5a,6,8,9-octahydro-7H-1,2,5,7-tetraazabenzo[cd]azulen-7-yl)prop-2-en-1-one], the AC50 is 1 to 100 nM in the test on HCT116 cells (Homo sapiens, HCT-116, 168 h); under 0.0015 µM in test [1]; 0.005 to 0.015 µM in test [2]; over 3000 nM in the test on HT29 cells.

As to `C=CC(=O)N1CCc2nn(-c3ccc(C4CC4)cc3)c3c2C(C1)N(C(=O)c1cnc(Br)cc1N)CC3` (centres unmarked) [Compound 166, 1-(5-(4-amino-6-bromonicotinoyl)-2-(4-cyclopropylphenyl)-2,3,4,5,5a,6,8,9-octahydro-7H-1,2,5,7-tetraazabenzo[cd]azulen-7-yl)prop-2-en-1-one], the AC50 was 1 to 100 nM in the test with HCT116 cells (Homo sapiens, HCT-116, 168 h); under 0.0015 µM in test [1]; 0.005 to 0.015 µM in test [2]; over 3000 nM in the test on HT29 cells.

With `C=CC(=O)N1CCc2nn(-c3ccc(C4CCC4)cc3O)c3c2C(C1)N(C(=O)c1ccc(Br)c2nc(CCO)[nH]c12)CC3` (centres unmarked) [Compound 148, 1-(5-(4-bromo-2-(2-hydroxyethyl)-1H-benzo[d]imidazole-7-carbonyl)-2-(4-cyclobutyl-2-hydroxyphenyl)-2,3,4,5,5a,6,8,9-octahydro-7H-1,2,5,7-tetraazabenzo[cd]azulen-7-yl)prop-2-en-1-one], the AC50 is 1 to 100 nM in the test on HCT116 cells (Homo sapiens, HCT-116, 168 h); under 0.0015 µM in test [1]; 0.005 to 0.015 µM in test [2]; over 3000 nM with HT29 cells.

Take `C=CC(=O)N1CCc2nn(-c3ccc(C(C)C)cc3)c3c2C(C1)N(C(=O)c1cnc(C(F)(F)F)c(OCC(N)=O)c1)CC3` (centres unmarked) [Compound 59, 2-((5-(7-acryloyl-2-(4-isopropylphenyl)-3,4,5,5a,6,7,8,9-octahydro-2H-1,2,5,7-tetraazabenzo[cd]azulene-5-carbonyl)-2-(trifluoromethyl)pyridin-3-yl)oxy)acetamide]: the AC50 in the test with HCT116 cells (Homo sapiens, HCT-116, 168 h) is 100 to 250 nM; in test [1], 0.0015 to 0.005 µM; in test [2], 0.015 to 0.055 µM; with HT29 cells it was over 3000 nM.

As to `C=CC(=O)N1CCOc2nn(-c3ccc(C4CC4)cc3C)c3c2C(C1)N(C(=O)c1ccc(Br)c2[nH]cnc12)CC3` (centres unmarked) [Compound 103, 1-(5-(7-bromo-1H-benzo[d]imidazole-4-carbonyl)-2-(4-cyclopropyl-2-methylphenyl)-2,3,4,5,5a,6,8,9-octahydro-7H-10-oxa-1,2,5,7-tetraazacycloocta[cd]inden-7-yl)prop-2-en-1-one], the AC50 with HCT116 cells (Homo sapiens, HCT-116, 168 h) was 250 to 500 nM; in test [1], under 0.0015 µM; in test [2] it was 0.015 to 0.055 µM; in the test with HT29 cells, over 3000 nM.

In the case of `C=CC(=O)N1CCc2nn(-c3ccc(C4CCC4)cc3O)c3c2C(C1)N(C(=O)c1ccc2c(Br)n[nH]c2c1)CC3` (centres unmarked) [Compound 24, 1-(5-(3-bromo-1H-indazole-6-carbonyl)-2-(4-cyclobutyl-2-hydroxyphenyl)-2,3,4,5,5a,6,8,9-octahydro-7H-1,2,5,7-tetraazabenzo[cd]azulen-7-yl)prop-2-en-1-one], the AC50 in the test with HCT116 cells (Homo sapiens, HCT-116, 168 h) was 1 to 100 nM; in test [1], under 0.0015 µM; in test [2], 0.005 to 0.015 µM; in the test on HT29 cells, over 3000 nM.

`C=CC(=O)N1CCc2nn(-c3ccc(C(F)(F)F)cc3O)c3c2C(C1)N(C(=O)c1ccc(Br)c2[nH]cnc12)CC3` (centres unmarked) [Compound 3, 1-(5-(7-bromo-1H-benzo[d]imidazole-4-carbonyl)-2-(2-hydroxy-4-(trifluoromethyl)phenyl)-2,3,4,5,5a,6,8,9-octahydro-7H-1,2,5,7-tetraazabenzo[cd]azulen-7-yl)prop-2-en-1-one]: the concentration at half-maximal activity (AC50) in the test on HCT116 cells (Homo sapiens, HCT-116, 168 h) was 1 to 100 nM; in test [1] it was 0.0015 to 0.005 µM; in test [2], 0.015 to 0.055 µM; with HT29 cells, over 3000 nM.

`C=CC(=O)N1CCc2nn(-c3ccc(C(C)C)cc3)c3c2C(C1)N(C(=O)c1ncc(Br)c2[nH]cnc12)CC3` (centres unmarked) [Compound 10, 1-(5-(7-bromo-1H-imidazo[4,5-c]pyridine-4-carbonyl)-2-(4-isopropylphenyl)-2,3,4,5,5a,6,8,9-octahydro-7H-1,2,5,7-tetraazabenzo[cd]azulen-7-yl)prop-2-en-1-one]: the AC50 in the test on HCT116 cells (Homo sapiens, HCT-116, 168 h) was 1 to 100 nM; in test [1], under 0.0015 µM; in test [2], 0.015 to 0.055 µM; in the test on HT29 cells it was over 3000 nM.

Consider `C=CC(=O)N1CCc2nn(-c3ccc(C4CCC4)cc3O)c3c2C(C1)N(C(=O)c1cnc2c(C)nn(C)c2c1)CC3` (centres unmarked) [Compound 145, 1-(2-(4-cyclobutyl-2-hydroxyphenyl)-5-(1,3-dimethyl-1H-pyrazolo[4,3-b]pyridine-6-carbonyl)-2,3,4,5,5a,6,8,9-octahydro-7H-1,2,5,7-tetraazabenzo[cd]azulen-7-yl)prop-2-en-1-one], for which the AC50 in the test with HCT116 cells (Homo sapiens, HCT-116, 168 h) is 1 to 100 nM; in test [1], under 0.0015 µM; in test [2], 0.005 to 0.015 µM; in the test with HT29 cells, over 3000 nM.

For the compound `C=CC(=O)N1CCc2nn(-c3ccc(C4CC4)cc3O)c3c2C(C1)N(C(=O)c1cnc(OC(F)(F)F)c(F)c1N)CC3` (centres unmarked) [Compound 247, 1-(5-(4-amino-5-fluoro-6-(trifluoromethoxy)nicotinoyl)-2-(4-cyclopropyl-2-hydroxyphenyl)-2,3,4,5,5a,6,8,9-octahydro-7H-1,2,5,7-tetraazabenzo[cd]azulen-7-yl)prop-2-en-1-one], the AC50 in the test with HCT116 cells (Homo sapiens, HCT-116, 168 h) is 1 to 100 nM; in test [1], 0.0015 to 0.005 µM; in test [2], 0.005 to 0.015 µM; in the test with HT29 cells it was over 3000 nM.
